For this assay, the target named is Sodium-dependent dopamine transporter (Homo sapiens) (UniProt Q01959). Put plainly: Inhibition of DAT (unknown origin) at 10 uM.

As usually defined, the inhibition is the share of the control response that was lost under treatment.

Sodium-dependent dopamine transporter (Homo sapiens), sequence (Q01959 whole entry): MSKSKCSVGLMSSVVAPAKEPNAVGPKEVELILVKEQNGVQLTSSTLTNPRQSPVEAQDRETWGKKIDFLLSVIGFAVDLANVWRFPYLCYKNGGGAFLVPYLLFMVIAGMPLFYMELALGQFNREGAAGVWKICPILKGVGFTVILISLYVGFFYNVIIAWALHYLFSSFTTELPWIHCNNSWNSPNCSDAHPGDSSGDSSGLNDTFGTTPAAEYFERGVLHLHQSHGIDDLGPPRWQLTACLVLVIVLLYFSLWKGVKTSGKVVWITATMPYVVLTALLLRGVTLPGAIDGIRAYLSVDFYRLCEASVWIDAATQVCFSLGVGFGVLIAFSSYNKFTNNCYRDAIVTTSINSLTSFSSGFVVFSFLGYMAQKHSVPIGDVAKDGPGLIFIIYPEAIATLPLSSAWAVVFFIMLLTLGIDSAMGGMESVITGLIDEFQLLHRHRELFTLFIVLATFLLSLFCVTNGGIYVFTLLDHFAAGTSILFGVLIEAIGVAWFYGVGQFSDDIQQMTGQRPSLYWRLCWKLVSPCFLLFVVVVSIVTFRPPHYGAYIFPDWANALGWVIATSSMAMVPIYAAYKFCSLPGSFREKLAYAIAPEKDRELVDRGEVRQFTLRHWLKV

For `O=C1Cc2cc(S(=O)(=O)NNc3ccc(Br)cc3)ccc2N1`, the inhibition is < 50%.

For the origin of these results see ChEMBL document CHEMBL3763120, “Phenyl Benzenesulfonylhydrazides Exhibit Selective Indoleamine 2,3-Dioxygenase Inhibition with Potent in Vivo Pharmacodynamic Activity and Antitumor Efficacy” (J Med Chem, 2016).
